{"source": "patent US8497283B2", "about": "“Autotaxin inhibitors” (Merck Patent GmbH, priority 2009, dated 2013)"}
{"target": "T1, recombinant autotaxin (Homo sapiens, UniProt Q13822)", "T1 construct": "made in house; host or cells: Hi5 insect cells (baculovirus)", "test": "Autotaxin assay (Amplex Red fluorescence, LPC substrate)", "format": "biochemical", "details": "percent of uninhibited control (100%) at 1E−05 M compound", "procedure": "(§1) Autotaxin activity is measured indirectly by means of Amplex Red Reagent. In this course, Amplex Red is measured as fluorogenic indicator for generated H2O2. Autotaxin converts substrate lysophosphatidylcholine (LPC) to phosphocholine and lysophosphatidylic acid (LPA). After the conversion phosphocholine is reacted with alkaline phosphatase to obtain inorganic phosphate and choline. During the next step choline is oxidized with choline oxidase to yield betaine, whereby H2O2 is generated. H2O2 reacts with Amplex Red Reagent in the presence of peroxidase (Horseradish peroxidase) in an 1:1 stochiometry and yields highly fluorescent resorufin. The generated fluorescence is measured in a reaction-dependent kinetic mode in order to enable subtraction of fluorescence signals of possible other fluorescent compounds that are not part of the reaction from total measured fluorescence.\n(§2) 1.5 μl of a standard solution or of the compounds of the invention are dissolved in 20 mM Hepes pH 7.2 with maximally 7.7% DMSO in individual concentrations. The resulting solution is pre-incubated together with 10 μl (16 ng) of highly purified recombinant autotaxin in a black 384-hole microtiter plate for 30 min at 22° C.\n(§3) Thereafter, the reaction is started through the addition of 5 μl L-a-lysophosphatidyl-choline (LPC), whereby the final concentration of LPC is 75 μM. The mixture is incubated for 90 min. at 37° C. After the incubation Amplex Red Reagent, peroxidase (Horseradish peroxidase) and choline oxidase are added. The fluorescence is immediately measured at a wavelength of 612 nm with an excitation wavelength of 485 nm in a “Tecan Ultra multimode” fluorescence reader. The activity of autotaxin is indirectly calculated via the amount of detected generated H2O2.\n(§4) For IC50 analysis, ten serial 1:3 dilutions starting at 30 μM for each compound were run in duplicates.\n(§5) IC50 values were calculated on normalized data. For normalization, control wells were added to each assay plate and the signal of uninhibited control wells was set to 100%, whereas the signal inhibited by 500 μM C14 LPA, (Avanti Polar Lipids, Cat#857120P) was set to 0%. Curves were fitted and IC50 values calculated by the following model using proprietory analysis software: Y=Bottom+(100−Bottom)/(1+10^((Log IC50−X)*HillSlope))\n(§6) Where X is the logarithm of concentration. Y is the response;\n(§7) Y starts at Bottom and goes to Top with a sigmoid shape.\n(§8) Protein: Recombinant autotaxin (baculoviral Hi5 expression)\n(§9) Substrate: L-a-lysophosphatidyl choline (chicken egg); Avanti Polar Lipids #830071P\n(§10) Standard: C14 LPA, Avanti Polar Lipids, Cat#857120P\n(§11) Detection Reagent Amplex Red Reagent; Invitrogen #A12222; dissolved in 1.923 ml of DMSO peroxidase Type VI-A (horseradish), Sigma #P6782; dissolved in 7.45 ml of test buffer, Choline Oxidase; Sigma #C5896; dissolved in 2.47 ml test buffer\n(§12) Detection Reagent Mix: 1:100 dilution of Amplex Red Regent in test buffer\n(§13) Test buffer: 200 mM Tris-HCl, Merck, Cat #1.08219, pH 7.9; 0.1% BSA, lipid free, Roche Cat#775835", "units": {"% CTRL (1E−05)": "%"}}
{"smiles": "NC(=O)c1c(NC(=O)Cc2ccc(Cl)cc2F)sc2c1CCN(Cc1ccccn1)C2", "note": "[Compound 17, 2-[2-(4-Chloro-2-fluoro-phenyl)-acetylamino]-6-pyridin-2-ylmethyl-4,5,6,7-tetrahydro-thieno[2,3-c]pyridine-3-carboxylic acid amide]", "% CTRL (1E−05)": 66}
{"smiles": "NC(=O)c1c(NC(=O)Nc2ccc(Cl)cc2)sc2c1CCN(Cc1ccccn1)C2", "note": "[Compound 18, 2-[3-(4-Chloro-phenyl)-ureido]-6-pyridin-2-ylmethyl-4,5,6,7-tetrahydro-thieno[2,3-c]pyridine-3-carboxylic acid amide]", "% CTRL (1E−05)": 88}
{"target": "T1, recombinant autotaxin", "test": "Autotaxin assay (Amplex Red fluorescence, LPC substrate)", "format": "biochemical", "details": "ten serial 1:3 dilutions starting at 30 μM, duplicates; 75 μM LPC; values given as upper bounds", "procedure": "as §1, §2, §3, §4, §5, §6, §7, §8, §9, §10, §11, §12, §13", "units": {"IC50": "nM"}}
{"smiles": "NC(=O)c1c(NC(=O)Nc2ccc(Cl)cc2)sc2c1CCN(C(=O)c1ccc3[nH]nnc3c1)C2", "note": "[Compound 1, 6-(1H-Benzotriazole-5-carbonyl)-2-[3-(4-chloro-phenyl)-ureido]-4,5,6,7-tetrahydro-thieno[2,3-c]pyridine-3-carboxylic acid amide]", "IC50": "< 1000"}
{"smiles": "NC(=O)c1c(NC(=O)Nc2ccc(Cl)cc2)sc2c1CCN(C(=O)c1ccc3[nH]c(=O)oc3c1)C2", "note": "[Compound 2, 2-[3-(4-Chloro-phenyl)-ureido]-6-(2-oxo-2,3-dihydro-benzooxazole-6-carbonyl)-4,5,6,7-tetrahydro-thieno[2,3-c]pyridine-3-carboxylic acid amide]", "IC50": "< 1000"}
{"smiles": "NC(=O)c1c(NC(=O)Nc2ccc(C(F)(F)F)cc2)sc2c1CCN(C(=O)c1ccc3[nH]nnc3c1)C2", "note": "[Compound 3, 6-(1H-Benzotriazole-5-carbonyl)-2-[3-(4-trifluoromethyl-phenyl)-ureido]-4,5,6,7-tetrahydro-thieno[2,3-c]pyridine-3-carboxylic acid amide]", "IC50": "< 1000"}
{"smiles": "CC(C)c1ccc(NC(=O)Nc2sc3c(c2C(N)=O)CCN(C(=O)c2ccc4[nH]nnc4c2)C3)cc1", "note": "[Compound 4, 6-(1H-Benzotriazole-5-carbonyl)-2-[3-(4-isopropyl-phenyl)-ureido]-4,5,6,7-tetrahydro-thieno[2,3-c]pyridine-3-carboxylic acid amide]", "IC50": "< 1000"}
{"smiles": "NC(=O)c1c(NC(=O)CCc2ccc(Cl)cc2)sc2c1CCN(C(=O)c1ccc3[nH]nnc3c1)C2", "note": "[Compound 5, 6-(1H-Benzotriazole-5-carbonyl)-2-[3-(4-chloro-phenyl)-propionylamino]-4,5,6,7-tetrahydro-thieno[2,3-c]pyridine-3-carboxylic acid amide]", "IC50": "< 1000"}
{"smiles": "NC(=O)c1c(NC(=O)CCc2ccc(Cl)cc2)sc2c1CCN(C(=O)c1ccc3[nH]c(=O)oc3c1)C2", "note": "[Compound 6, 2-[3-(4-Chloro-phenyl)-propionylamino]-6-(2-oxo-2,3-dihydro-benzooxazole-6-carbonyl)-4,5,6,7-tetrahydro-thieno[2,3-c]pyridine-3-carboxylic acid amide]", "IC50": "< 1000"}
{"smiles": "CC(C)c1ccc(NC(=O)Nc2sc3c(c2C(N)=O)CCN(C(=O)c2ccc4[nH]c(=O)oc4c2)C3)cc1", "note": "[Compound 7, 2-[3-(4-Isopropyl-phenyl)-ureido]-6-(2-oxo-2,3-dihydro-benzooxazole-6-carbonyl)-4,5,6,7-tetrahydro-thieno[2,3-c]pyridine-3-carboxylic acid amide]", "IC50": "< 1000"}
{"smiles": "NC(=O)c1c(NC(=O)Nc2cc(Cl)cc(Cl)c2)sc2c1CCN(C(=O)c1ccc3[nH]c(=O)oc3c1)C2", "note": "[Compound 8, 2-[3-(3,5-Dichloro-phenyl)-ureido]-6-(2-oxo-2,3-dihydro-benzooxazole-6-carbonyl)-4,5,6,7-tetrahydro-thieno[2,3-c]pyridine-3-carboxylic acid amide]", "IC50": "< 10000"}
{"smiles": "NC(=O)c1c(NC(=O)Cc2ccc(Cl)cc2F)sc2c1CCN(C(=O)c1ccc3[nH]nnc3c1)C2", "note": "[Compound 9, 6-(1H-Benzotriazole-5-carbonyl)-2-[2-(4-chloro-2-fluoro-phenyl)-acetylamino]-4,5,6,7-tetrahydro-thieno[2,3-c]pyridine-3-carboxylic acid amide]", "IC50": "< 1000"}
{"smiles": "NC(=O)c1c(NC(=O)Cc2ccc(Cl)cc2F)sc2c1CCN(C(=O)c1ccc3[nH]c(=O)oc3c1)C2", "note": "[Compound 10, 2-[2-(4-Chloro-2-fluoro-phenyl)-acetylamino]-6-(2-oxo-2,3-dihydro-benzooxazole-6-carbonyl)-4,5,6,7-tetrahydro-thieno[2,3-c]pyridine-3-carboxylic acid amide]", "IC50": "< 1000"}
{"smiles": "NC(=O)c1c(NC(=O)Cc2cccc(Cl)c2)sc2c1CCN(C(=O)c1ccc3[nH]nnc3c1)C2", "note": "[Compound 11, 6-(1H-Benzotriazole-5-carbonyl)-2-[2-(3-chloro-phenyl)-acetylamino]-4,5,6,7-tetrahydro-thieno[2,3-c]pyridine-3-carboxylic acid amide]", "IC50": "< 1000"}
{"smiles": "NC(=O)c1c(NC(=O)Nc2cc(Cl)cc(Cl)c2)sc2c1CCN(C(=O)c1ccc3[nH]nnc3c1)C2", "note": "[Compound 12, 6-(1H-Benzotriazole-5-carbonyl)-2-[3-(3,5-dichloro-phenyl)-ureido]-4,5,6,7-tetrahydro-thieno[2,3-c]pyridine-3-carboxylic acid amide]", "IC50": "< 10000"}
{"smiles": "NC(=O)c1c(NC(=O)Cc2cccc(Cl)c2)sc2c1CCN(C(=O)c1ccc3[nH]c(=O)oc3c1)C2", "note": "[Compound 13, 2-[2-(3-Chloro-phenyl)-acetylamino]-6-(2-oxo-2,3-dihydro-benzooxazole-6-carbonyl)-4,5,6,7-tetrahydro-thieno[2,3-c]pyridine-3-carboxylic acid amide]", "IC50": "< 1000"}
{"smiles": "NC(=O)c1c(NC(=O)Cc2ccc(Cl)cc2)sc2c1CCN(C(=O)c1ccc3[nH]c(=O)oc3c1)C2", "note": "[Compound 14, 2-[2-(4-Chloro-phenyl)-acetylamino]-6-(2-oxo-2,3-dihydro-benzooxazole-6-carbonyl)-4,5,6,7-tetrahydro-thieno[2,3-c]pyridine-3-carboxylic acid amide]", "IC50": "< 1000"}
{"smiles": "NC(=O)c1c(NC(=O)Nc2ccc(Cl)cc2F)sc2c1CCN(C(=O)c1ccc3[nH]nnc3c1)C2", "note": "[Compound 15, 6-(1H-Benzotriazole-5-carbonyl)-2-[3-(4-chloro-2-fluoro-phenyl)-ureido]-4,5,6,7-tetrahydro-thieno[2,3-c]pyridine-3-carboxylic acid amide]", "IC50": "< 1000"}
{"smiles": "NC(=O)c1c(NC(=O)Cc2ccc(Cl)cc2F)sc2c1CCN(Cc1cccnc1)C2", "note": "[Compound 16, 2-[2-(4-Chloro-2-fluoro-phenyl)-acetylamino]-6-pyridin-3-ylmethyl-4,5,6,7-tetrahydro-thieno[2,3-c]pyridine-3-carboxylic acid amide]", "IC50": "< 30000"}
{"smiles": "NC(=O)c1c(NC(=O)Nc2ccc(Cl)cc2)sc2c1CCN(C(=O)c1cccnc1)C2", "note": "[Compound 19, 2-[3-(4-Chloro-phenyl)-ureido]-6-(pyridine-3-carbonyl)-4,5,6,7-tetrahydro-thieno[2,3-c]pyridine-3-carboxylic acid amide]", "IC50": "< 10000"}
{"smiles": "NC(=O)c1c(NC(=O)Nc2ccc(Cl)cc2)sc2c1CCN(Cc1ccncc1)C2", "note": "[Compound 20, 2-[3-(4-Chloro-phenyl)-ureido]-6-pyridin-4-ylmethyl-4,5,6,7-tetrahydro-thieno[2,3-c]pyridine-3-carboxylic acid amide]", "IC50": "< 10000"}
{"smiles": "NC(=O)c1c(NC(=O)Cc2ccc(Cl)cc2F)sc2c1CCN(Cc1ccncc1)C2", "note": "[Compound 21, 2-[2-(4-Chloro-2-fluoro-phenyl)-acetylamino]-6-pyridin-4-ylmethyl-4,5,6,7-tetrahydro-thieno[2,3-c]pyridine-3-carboxylic acid amide]", "IC50": "< 10000"}
{"smiles": "NC(=O)c1c(NC(=O)Cc2ccc(Cl)cc2F)sc2c1CCN(C(=O)Cc1cccnc1)C2", "note": "[Compound 22, 2-[2-(4-Chloro-2-fluoro-phenyl)-acetylamino]-6-(2-pyridin-3-yl-acetyl)-4,5,6,7-tetrahydro-thieno[2,3-c]pyridine-3-carboxylic acid amide]", "IC50": "< 10000"}
{"smiles": "NC(=O)c1c(NC(=O)Cc2ccc(Cl)cc2F)sc2c1CCN(C(=O)Cc1ccncc1)C2", "note": "[Compound 23, 2-[2-(4-Chloro-2-fluoro-phenyl)-acetylamino]-6-(2-pyridin-4-yl-acetyl)-4,5,6,7-tetrahydro-thieno[2,3-c]pyridine-3-carboxylic acid amide]", "IC50": "< 10000"}
